# Like-named read-outs stand apart in the source and are kept apart here.
# Columns and labels:
# human fibroblasts (HFb) = test: Tyrosine dosage: intracellular tyrosine in HFb by LC-MS-MS; type: cell-based; conditions: for slope of dose-response curve of intracellular tyrosine: tyrosine ng in 9×10^4 cells versus concentration, Figure 3A
# Method: Intracellular tyrosine was calculated in HFb (9×10^4 cells/well) treated for 72 h with the compounds under assessment at various concentrations (10^-8, 10^-7, 10^-6 and 10^-5 M); controls were performed using the carrier at the concentration corresponding to the highest dose of the compound under assessment. At the end of treatment, the cells were recovered by scraping in the presence of norvaline (10^-3 M, used as internal standard, Sigma-Aldrich cod. N7627) and cold methanol (40 µL, Sigma-Aldrich cod. 34860), and subsequently lysed by cycles of freezing/thawing in a bath of dry ice/nitrogen. The lysate was centrifuged (6000g for 5 min) and the supernatant was then recovered, evaporated and re-suspended with 100 µL of 0.05% formic acid. Each sample was analysed by LC-MS-MS. In particular, the analysis was performed with a chromatographic instrument manufactured by Varian (Varian Inc.) run by the software Varian MS Workstation System Control Vers. […] Subsequently, the concentration of each compound was correlated with the amount of intracellular tyrosine contained in 9×10^4 cells and the resulting dose-response curve was obtained using the Origin® - Data Analysis and Graphing software by means of a linear type interpolating curve.
# (§1) LD50 was evaluated in vitro using the MTT cell viability assay for the first time on human cells, in particular on primary human fibroblasts (HFb). […] Intracellular tyrosine was measured in HFb by LC-MS-MS analysis.
# [1] = alkaptonuria patients, over the course of 3 years; cited from earlier work
# [2] = system: primary human fibroblasts (HFb); test: in vitro; type: cell-based
# Method: (§2) 12×10^4 primary human fibroblasts (ATCC, cat PCS-201-012) were treated with compounds at various concentrations (10^-7 M, 10^-6 M, 10^-5 M, 10^-4 M, 10^-3 M) for 24 and 144 h. HFb were cultured as described in [21]. Cellular viability was quantified by the MTT assay (Sigma-Aldrich cod. M5655) as described in [22]. Controls were performed treating the cells with vehicle (DMSO) alone. Calculation of LD50 was performed by means of the Origin® - Data Analysis and Graphing software using a sigmoid type interpolating curve.
# as §1
# 4-HPPD = target: T1, 4-HPPD (Rattus norvegicus, UniProt P32755); test: Determination of 4-HPPD activity by oxygen consumption (SDR SensorDish Reader) in rat liver cytosol; type: biochemical, male Wistar rat
# T1 construct: from tissue; host or cells: liver cytosol of a male Wistar rat
# Method: 4-HPPD activity was evaluated in the liver cytosol of a male Wistar rat by monitoring oxygen consumption through the use of the SDR SensorDish® Reader (Presens, Precision Sensing GmbH, Regensburg, Germany). Briefly, a special test tube with an oxygen sensor placed on the bottom was filled with 0.2 M sodium phosphate buffer with pH 7.4, 1.7 mM ascorbic acid (used as a cofactor) and 10.92 mg of rat enzyme preparation (4-HPPD source). The mixture was equilibrated at 37°C for 5 min. and the reaction was started by the addition of substrate ([…], Sigma-Aldrich cod. SAE0003). […] The percentage of inhibition of enzymatic activity was calculated as the ratio of the slopes (decrease of the concentration of O2 (µmol/L) per min.) of the samples containing the inhibitor versus the untreated controls corrected with the negative control values. The IC50 values were calculated by means of regression analysis in the range of tested concentrations by means of the Origin® - Data Analysis and Graphing software using a sigmoid type interpolating curve and plotting on the x-axis the concentrations of the compounds and on the y-axis oxygen consumption values expressed as a percentage of 4-HPPD inhibition, the reduction of oxygen being correlated with inhibition of the enzyme.
# 4-HPPD inhibition was determined in the cytosolic extract of rat liver (source of the enzyme), by evaluation of enzymatic consumption of oxygen using the SDR SensorDish ® Reader, and was expressed as an IC50 value.
# in vitro = type: cell-based; conditions: after 144 h of treatment, concentration 1 mM; read-out: viability of HFb
# Method: as §2, §1
# [3] = rat liver cytosol, oxygen consumption, read-out: IC50
# [4] = rat liver cytosol, oxygen consumption, read-out: IC50 (4-HPPD inhibitory activity)
# [5] = rat liver cytosol, oxygen consumption
# T1 sequence (P32755 whole entry): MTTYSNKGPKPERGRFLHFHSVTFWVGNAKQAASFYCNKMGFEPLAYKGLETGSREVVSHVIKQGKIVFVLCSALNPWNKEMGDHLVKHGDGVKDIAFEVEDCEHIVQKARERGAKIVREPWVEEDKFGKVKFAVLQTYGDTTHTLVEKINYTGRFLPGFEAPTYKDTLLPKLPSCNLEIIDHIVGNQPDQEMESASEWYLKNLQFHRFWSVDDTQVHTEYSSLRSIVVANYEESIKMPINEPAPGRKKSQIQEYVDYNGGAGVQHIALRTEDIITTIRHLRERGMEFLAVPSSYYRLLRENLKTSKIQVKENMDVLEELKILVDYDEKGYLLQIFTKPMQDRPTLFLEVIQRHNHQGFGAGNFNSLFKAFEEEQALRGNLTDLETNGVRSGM
smiles,measurement,setting,value
"O=C1CCCC(=O)C1C(=O)c1ccc(C(F)(F)F)cc1[N+](=O)[O-] [Compound 1, 2-(2-nitro-4-(trifluoromethyl)benzoyl)cyclohexane-1,3-dione, reference compound]",intracellular tyrosine increased compared to untreated HFb,"human fibroblasts (HFb); 72 h, concentration 10^-5 M",~32%
same,intracellular tyrosine increased compared to untreated HFb,"human fibroblasts (HFb); 72 h, concentration 10^-6 M",about 21%
same,slope of dose-response curve of intracellular tyrosine,human fibroblasts (HFb); 72 h,5.47
same,reduction of HGA in urine and plasma,[1],95%
same,LD50 24 hours,"[2]; human, 24 h",>1 mM [c]
same,LD50 at 24 h,"[2]; human, 24 h",> 10^-3 M
same,LD50 144 hours,"[2]; human, 144 h",~1 mM
same,LD50 at 144 h,"[2]; human, 144 h",10^-3 M
"CS(=O)(=O)c1ccc(C(=O)C2C(=O)C(O)CC(O)C2=O)c(Cl)c1COCC(F)(F)F (centres unmarked) [Compound 2, 2-[2-Chloro-4-methylsulfonyl-3-(2,2,2-trifluoroetoxyimethyl)benzoyl]-4,6-dihydroxy-cyclohexane-1,3-dione]",IC50,4-HPPD; [3],227 ± 9 nM
same,LD50 24 hours,"[2]; human, 24 h",0.48 ± 0.04 mM
same,LD50 144 hours,"[2]; human, 144 h",0.48 ± 0.03 mM
"CS(=O)(=O)c1ccc(C(=O)C2C(=O)CCCC2=O)c(Cl)c1COCC(F)(F)F [Compound 3, 2-[2-Chloro-4-methylsulfonyl-3-(2,2,2-trifluoroetoxymethyl)benzoyl]cyclohexane-1,3-dione]",slope of dose-response curve of intracellular tyrosine,human fibroblasts (HFb); 72 h,1.89
same,IC50,4-HPPD; [3],152 ± 6 nM
same,IC50,4-HPPD; [4],152 nM
same,LD50 24 hours,"[2]; HFb, MTT, 24 hours treatment",>1 mM [c]
same,LD50 144 hours,"[2]; HFb, MTT, 144 hours treatment",>1 mM [c]
same,LD50,"[2]; HFb, treatment time not given",greater than 10^-3 M
"CS(=O)(=O)c1ccc(C(=O)C2C(=O)CCCC2=O)c([N+](=O)[O-])c1 [Compound 4, 2-(4-Methylsulfonyl-2-nitrobenzoyl)-cyclohexane-1,3-dione]",tyrosine level lower than in the control,"human fibroblasts (HFb); 72 h, highest inhibitor concentration, p<0.01",about 14%
same,intracellular tyrosine levels higher than in the control group,"human fibroblasts (HFb); 72 h, lowest inhibitor concentration analysed, p<0.01",about 17%
same,IC50,4-HPPD; [3],36.7 ± 9.7 nM
same,IC50,4-HPPD; [4],36.7 nM
same,LD50 24 hours,"[2]; HFb, MTT, 24 hours treatment",1.1 ± 0.1 mM
same,LD50 144 hours,"[2]; HFb, MTT, 144 hours treatment",>1 mM [c]
CS(=O)(=O)c1cc(C(F)(F)F)ccc1C(=O)c1cnoc1C1CC1 [Compound 5],IC50,4-HPPD,399 ± 19 nM
same,LD50 24 hours,"[2]; HFb, MTT, 24 hours treatment",>1 mM [c]
same,LD50 144 hours,"[2]; HFb, MTT, 144 hours treatment",0.11 ± 0.07 mM
"CC1(C)CC(=O)C(C(=O)c2ccc([N+](=O)[O-])cc2Cl)C(=O)C1 [Compound 6, 2-(2-chloro-4-nitro-benzoyl)-5,5-dimethyl-cyclohexane-1,3-dione]",intracellular tyrosine accumulation lower than that found for compound 1,"human fibroblasts (HFb); highest concentration tested, treatment for three days, p<0.01",about 7%
same,residual activity of the enzyme,4-HPPD; rat liver cytosol 4-HPPD,~30%
same,IC50,4-HPPD; [3],36.4 ± 9.3 nM
same,IC50,"4-HPPD; rat liver cytosol, read-out: IC50",~36.4 nM
same,LD50 24 hours,"[2]; human, 24 h",>1 mM [c]
same,LD50 144 hours,"[2]; human, 144 h",>1 mM [c]
same,"viability at 144 h, 1 mM",in vitro,~75%
"COC(=O)C1C(=O)C(C(=O)c2ccc([N+](=O)[O-])cc2)C(=O)CC1(C)C (centres unmarked) [Compound 7, 2,2-Dimethyl-5-(4-nitrobenzoyl)-4,6-dioxycyclohexane methyl carboxylate]",IC50,4-HPPD; [5],no inhibition
same,LD50 24 hours,"[2]; human, 24 h",0.63 ± 0.12 mM
same,LD50 144 hours,"[2]; human, 144 h",>1 mM [c]
"CC1(C)CC(=O)C(C(=O)c2ccccc2)C(=O)C1Cl (centres unmarked) [Compound 8, 2-Benzoyl-4-chloro-5,5-dimethyl-cyclohexane-1,3-dione]",IC50,4-HPPD; [5],no inhibition
same,LD50 24 hours,"[2]; human, 24 h",>1 mM [c]
same,LD50 144 hours,"[2]; human, 144 h",>1 mM [c]
"CC1(C)CC(=O)C(C(=O)c2ccccc2)C(=O)C1 [Compound 9, 2-Benzoyl-5,5-dimethyl-cyclohexane-1,3-dione]",IC50,4-HPPD; [5],no inhibition
same,LD50 24 hours,"[2]; human, 24 h",>1 mM [c]
same,LD50 144 hours,"[2]; human, 144 h",>1 mM [c]
"Cc1cc(C2C(=O)C(C(=O)c3ccc(Cl)cc3)C(=O)CC2(C)C)on1 (centres unmarked) [Compound 10, 2-(4-chlorobenzoyl)-5,5-dimethyl-4-(3-methyl-isoxazol-5-yl)-cyclohexane-1,3-dione]",IC50,4-HPPD; [3],59900 ± 1800 nM
same,LD50 24 hours,"[2]; human, 24 h",>1 mM [c]
same,LD50 144 hours,"[2]; human, 144 h",0.82 ± 0.20 mM
"CC1(C)C(Cl)C(=O)C(C(=O)c2ccccc2)C(=O)C1Cl (centres unmarked) [Compound 11, 2-Benzoyl-4,6-dichloro-5,5-dimethyl-cyclohexane-1,3-dione]",IC50,4-HPPD; [3],192 ± 2 nM
same,LD50 24 hours,"[2]; human, 24 h",>1 mM [c]
same,LD50 144 hours,"[2]; human, 144 h",0.29 ± 0.08 mM
"O=C1CCC(c2ccccc2)C(=O)C1C(=O)c1ccc(Cl)cc1Cl (centres unmarked) [Compound 13, 2-(2,4-dichlorobenzoyl) -4-phenyl-cyclohexane-1,3-dione]",IC50,4-HPPD; [3],279 ± 6 nM
same,LD50 24 hours,"[2]; human, 24 h",>1 mM [c]
same,LD50 144 hours,"[2]; human, 144 h",0.36 ± 0.15 mM
"CC1(C)CC(=O)C(C(=O)c2ccc(C(F)(F)F)cc2Cl)C(=O)C1 [Compound 14, 2-(2-Chloro-4-trifluoromethylbenzoyl)-5,5-dimethyl-cyclohexane-1,3-dione]",IC50,4-HPPD; [3],10500 ± 3700 nM
same,cytotoxicity (in words),[2],not cytotoxic
"CC1(C)CC(=O)C(C(=O)c2ccc(C(F)(F)F)cc2[N+](=O)[O-])C(=O)C1 [Compound 15, 2-(2-Nitro-4-trifluoromethylbenzoyl)-5,5-dimethyl-cyclohexane-1,3-dione]",IC50,4-HPPD,61.6 ± 7.4 nM
same,cytotoxicity (in words),"[2]; HFb, LD50 24 h",not cytotoxic
same,LD50 24 hours,"[2]; HFb, MTT, 24 hours treatment",> 0.01 mM

# — patent publication EP3419609B1, “TREATMENT OF ALKAPTONURIA AND TYROSINEMIA TYPE 1” (Università degli Studi di Siena, priority 2016, dated 2017)
